Consider 1 molecule from article PMC3169561, “Restoration of IFNγR Subunit Assembly, IFNγ Signaling and Parasite Clearance in Leishmania donovani Infected Macrophages: Role of Membrane Cholesterol” (PLoS Pathogens, 2011).

For the assay, the target named is T1, IFNγ receptor subunit 1 (IFNγR1) (Mus musculus, UniProt P15261).
T1 construct: gene Ifngr1; synthetic Wt IFNγR1 peptide, CRAC motif, residues 269 to 280 ([…])
Kind of assay: SPR (BIAcore […], L1 chip) of peptide over immobilized phosphatidylcholine/cholesterol liposomes. It is filed as binding. A general note: SPR reads the build-up and loss of mass on a sensor chip optically.

`CC(C)CCC[C@@H](C)[C@H]1CC[C@H]2[C@@H]3CC=C4C[C@@H](O)CC[C@]4(C)[C@H]3CC[C@]12C` [cholesterol] yielded a Kd of 4.27 nM.

One may read the Kd as a measure of binding affinity in units of concentration. High values mean weaker binding, low ones tighter binding.
